Measured values taken from patent US10342869B2, “Compositions comprising anti-CD38 antibodies and lenalidomide” (SANOFI, priority 2012, dated 2019).

What was measured:
[1] = test system: NCI-H929 multiple myeloma model; experiment: NCI-H929 subcutaneous multiple myeloma xenograft mouse model; type: in vivo, mice; conditions: lenalidomide 1 mg/kg/day PO QD × 21 d; for Activity: hu38SB19 0.5 mg/kg/injection IV 2x/wk × 2 wk
Excerpt: (§1) The subcutaneous multiple myeloma (MM) xenograft mouse models were established using H929 and RPMI8226 cell lines. Specifically, 5-6 week old female Balb/c Scid mice were obtained from Jackson Lab. Mice were housed for 7-10 days prior to implantation. Mice were housed in a dedicated room in the UCSF Mt Zion Animal Barrier Facility. NCI-H929 and RPMI-8226 cells were obtained from the German Collection of Microorganisms and Cell Cultures, DSMZ, (Deutsche Sammlung von Mikroorganismen and Zellkulturen), and grown in sterile suspension culture in T225 flasks as follows: NCI-H929:RPMI1640+20% FBS+4 mM L-glutamine+1 mM sodium pyruvate+50 μM mercaptoethanol. RPMI-8226:RPMI1640+10% FBS+4 mM L-glutamine.
(§2) At the time of implantation, mice were shaved on the right flank and shoulder region and anesthetized with ip avertin. MM cells suspended in serum free RPMI 1640 media diluted 1:1 with Matrigel (BD) at a concentration of 1×10^8 cells per ml were injected sc into the right flank in 100 μL volume (1×10^7 cells) using a 1 ml syringe and 25 g needle. Mice were monitored twice weekly for the appearance of tumors and once tumors were visible, measurements were collected twice weekly for body weight and tumor volume. Electronic balance and calipers were used and data was collected directly into a study management program (Study Director). When the mean tumor volume reached about 150-200 mm^3, the mice were distributed into treatment groups of 8-10 mice per groups and dosing was begun.
(§3) Data were collected using electronic balance and calipers using a study management application called StudyLog (Study Director).
(§4) Antitumor activity was determined according to NCI standards based on the ratio of the median tumor volume change of the treated/median tumor volume change of the control×100 (% ΔT/ΔC). Low numerical values for ΔT/ΔC describe stronger anti-tumor activity. Anti-tumor activity is defined as ΔT/ΔC≤40% at minimum. ΔT/ΔC<10% is considered high anti-tumor activity.

[2] = test system: RPMI-8226 tumors; experiment: RPMI-8226 hind-flank xenograft model (Example 3, FIGS. 13-14); type: in vivo, mice; conditions: RPMI-8226 xenograft; hu38SB19 twice weekly × 2 wk IV; lenalidomide qdx7×3 wk PO
Procedure: Lenolidomide (TC27682) was obtained from AK Scientific Inc. (Mountain View, Calif.) and prepared as a suspension in 1% (w/v) carboxymethyl cellulose (Sigma). Preparation was made using a mortar and pestle to generate a slurry suspension in the vehicle, diluted to the appropriate concentration, and used for dosing by oral gavage. Lenalidomide was administered qdx7×3 wk PO.
Zion Animal Barrier Facility.
RPMI-8226 were cultured in RPMI1640+10% FBS+4 mM L-glutamine.

[3] = test system: RPMI-8226 multiple myeloma model; experiment: RPMI-8226 subcutaneous multiple myeloma xenograft mouse model; conditions: RPMI-8226 xenograft, hu38SB19 15 mg/kg/injection IV 2x/wk × 2 wk, lenalidomide 15 mg/kg/day PO QD × 21 d
Excerpt: as §1, §2, §3, §4

[4] = test system: tumor cells; conditions: reported for other CD38 antibodies; cited from earlier work
[5] = test system: tumor cells; experiment: Apoptosis induction on tumor cells (preclinical studies); type: cell-based; conditions: without cross-linking
[6] = test system: tumor cells; experiment: ADCC on tumor cells; type: cell-based

| Molecule | % ΔT/ΔC (D69) ([1]; D69, hu38SB19 0.5 mg/kg/injection IV 2x/wk × 2 wk) [%] | Activity [1] | Activity ([1]; listed as lenalidomide) | Tumor growth inhibition [2] | % ΔT/ΔC (D69) ([3]; D69) [%] | Activity [3] | Activity ([3]; listed as lenalidomide) | Apoptosis induction [4] | Pro-apoptotic activity on tumor cells [5] | ADCC activity on tumor cells [6] |
| --- | --- | --- | --- | --- | --- | --- | --- | --- | --- | --- |
| Nc1cccc2c1CN(C1CCC(=O)NC1=O)C2=O (racemic) [Lenalidomide, (RS)-3-(4-amino-1-oxo-3H-isoindol-2-yl)piperidine-2,6-dione] | 20 | Active | active | not robustly sensitive to single-agent therapy | 61 | Inactive | inactive | – | – | – |
| Daratumumab: CD38 antibody reported to induce apoptosis only after cross-linking | – | – | – | – | – | – | – | able to induce apoptosis only after cross-linking with a secondary antibody | – | – |
| hu38SB19: humanized anti-CD38 antibody; VH SEQ ID NO: 66, VL SEQ ID NO: 62 or 64 | – | Active | – | dose-dependent inhibition of tumor growth | – | Inactive | – | – | potent direct pro-apoptotic activity | potent ADCC |
